Laboratory results as given in patent publication US10457680B2, “Process for preparing a PARP inhibitor, crystalline forms, and uses thereof” (BeiGene, Ltd., priority 2015, dated 2019).
Where two headings read alike, the source gives them in different places.

What was measured:
Hygroscopicity = format: physicochemical
[1] = Long term stability studies; format: physicochemical; conditions: for Assay w/w, T12: 12 months; for Assay w/w, T0: start
[2] = system: BRCA1/2 mutant ovary cancer; experiment: Phase I clinical safety study, capsules; format: in vivo, human
PARP2 (aa2-583) = PARP2 (aa2-583) (Homo sapiens, UniProt Q9UGN5); experiment: PARP2 PARylation chemiluminescent assay; format: biochemical; conditions: Crystalline Form C tested
Experimental: PARP1 and PARP2 enzymes were from the assay kits, while TNKS1 and TNKS2 enzymes were produced in-house. The assays were performed according to the manufacture's instruction. Briefly, H2A and H2B proteins were immobilized on the surface of plates and then incubated with a serial dilution of compounds and the target enzyme for 0.5 hr. Then, biotinylated NAD and DNA (no DNA needed for TNKS1 or TNKS2) were added to the wells to initiate reactions. The biotinylated PARsylation product was measured by chemiluminescence after adding streptavidin-HRP and HRP substrates.

Solubility study = format: physicochemical
human CYP2B6 = experiment: CYP2B6 induction; format: in vitro ADME
[3] = Metabolism in mouse liver microsomes; format: in vitro ADME
Brain penetration = conditions: in vivo
[4] = Tissue distribution after oral administration in rats; format: in vivo; conditions: 24 hours post-dosing
MDA-MB-231 cells = experiment: Growth inhibition, CellTiter-Glo, 7-day exposure, MDA-MB-231; format: cell-based; conditions: BRCA wild type
Experimental: (§1) MDA-MB-231 cells that is not BRCA gene mutant or other homologous recombination deficient were maintained in DMEM supplemented with fetal bovine serum (10% FBS), 100 units/ml penicillin and 0.1 mg/ml streptomycin. BRCA1-deficient cell line MDA-MB-436 was maintained in RPMI-1640 supplemented with 10% FBS, 100 units/ml penicillin and 0.1 mg/ml streptomycin. Both two cell lines were kept at 95% humidity and 5% CO2 in a 37° C. incubator.
(§2) The number of tumor cells seeded per well of a 96-well plate was optimized for each cell line to ensure logarithmic growth over the 7 days treatment period. Cells were left to attach for 16 hours and then treated with specific concentrations of test compounds. Following a 7-day exposure to the compound, the growth-inhibitory activity of compounds was determined using CellTiter-Glo luminescent cell viability assay (Promega). Luminescent signal was measured using PHERAstar FS reader (BMG Labtech). Cell viability was expressed as relative to mock treatment control. EC50 values for growth inhibition were calculated by fitting dose-dependent data to the four-parameter logistic model using XLfit software.

CYP2C9 = CYP2C9 (Homo sapiens, UniProt P11712); experiment: CYP2C9 inhibition; format: in vitro ADME
[5] = Excretion after oral administration in rats; format: in vivo
human CYP1A2 = experiment: CYP1A2 induction; format: in vitro ADME
[6] = Plasma protein binding, dog; format: in vitro ADME; conditions: read-out: Plasma protein binding (PPB) (converted)
[7] = Metabolism in dog liver microsomes; format: in vitro ADME
other CYP isozymes = experiment: Inhibition of other CYP isozymes; format: in vitro ADME; conditions: human; read-out: IC50s for other CYP isozymes
[8] = Metabolism in rat liver microsomes; format: in vitro ADME
[9] = Metabolism in human liver microsomes; format: in vitro ADME
PARP = experiment: In vivo pharmacodynamics: PARylation in MDA-MB-436 breast cancer xenografts; design: species or system BALB/c nude mice; conditions: 4 hours after single oral dose at 0.34 mg/kg or higher
[10] = Plasma protein binding, human; format: in vitro ADME; conditions: read-out: Plasma protein binding (PPB) (converted)
[11] = system: BRCA1 mutation breast cancer xenograft; experiment: BRCA1 mutation breast cancer xenograft model; format: in vivo; conditions: at much lower dose than olaparib
rat plasma protein = experiment: Plasma protein binding, rat; format: in vitro ADME
[12] = system: intracranial H209 xenografts; experiment: Intracranial H209 xenografts, combination with TMZ; format: in vivo, Mice; conditions: Compound A added to TMZ, compared to TMZ single agent
[13] = Metabolism in monkey liver microsomes; format: in vitro ADME
[14] = Plasma protein binding, mouse; format: in vitro ADME; conditions: read-out: Plasma protein binding (PPB) (converted)
human CYP3A = experiment: CYP3A induction; format: in vitro ADME
[15] = Plasma protein binding, monkey; format: in vitro ADME; conditions: read-out: Plasma protein binding (PPB) (converted)
[16] = Nonclinical toxicity, single and repeat dose studies up to 28 days; format: in vivo; conditions: rats and dogs
Source text: The nonclinical toxicity profile of Compound A was characterized in both rats and dogs in single and repeat dose studies up to 28 days. The adverse effects included decrease in body weights or body weight gain and food consumption; decrease in WBC, NEUT, LYMP, RBC, HGB, HCT and APTT; and increase in PLT. The bone marrow was considered to be the major target organ and the severity of histopathological changes ranged from minimal to marked. […] […]. In summary, the available toxicological data are adequate to support the clinical development of Compound A on late stage and advanced cancer patients in phase I study. The toxicity could be monitored and manageable clinically.

Pharmacokinetics in dog = format: in vivo
Experimental: (§3) The species used for the pharmacokinetic studies were rat and dog. Compound A had good to excellent oral bioavailability (>40%) in both species. Elimination half-lives ranged from 3.1 to 5.0 hours in rats and 1.5 to 2.5 hours in dogs after oral administration. […] Steady state volume of distribution in rats and dogs was 2.4 L/kg and 1.9 L/kg, respectively.

hERG current = hERG current (Homo sapiens, UniProt Q12809); experiment: hERG current; format: cell-based
[17] = system: MDA-MB-436 cells (BRCA1 Deficient); experiment: Growth inhibition, CellTiter-Glo, 7-day exposure, MDA-MB-436; format: cell-based, human; conditions: for EC50: 7-day exposure, BRCA1 Deficient, read-out: EC50 for growth inhibition, MDA-MB-436 (Table 20)
Experimental: as §1, §2

CYP3A, CYP2C8 = experiment: CYP isoforms responsible for metabolism; format: in vitro ADME
Pharmacokinetics in rat = format: in vivo
Experimental: as §3

[18] = system: Intracellular PARP activity; format: cell-based; conditions: HeLa cells, H2O2 200 μM; read-out: IC50 (nM) in PARylation assay
Experimental: Upon incubation with hydrogen peroxide (H2O2), Intracellular PARP activity was induced and endogenous PAR level was elevated. The assay was performed as follows:
Cells were plated into a 96-well plate with clear bottom and black wall at a density of 5000 cells per well (100 μL). […] In the following day, H2O2 solution in PBS (final concentration 200 μM) was added and the plate was kept at 37° C. for 5 minutes. Then the medium was gently removed by plate inversion, and the cells were fixed by ice-cold MeOH at −20° C. for 20 minutes. […] After removal of solution and repeated wash with PBS, the PAR polymer level was estimated by ArrayScan VTI (ThermoFisher). Percent inhibition was determined on the basis of the residual enzyme activity in the presence of increasing PARP inhibitor concentration. IC50 values were calculated by fitting dose-dependent data to the four-parameter logistic model using XLfit software.

[19] = read-out: EC50 for growth inhibition, MDA-MB-231 (Table 20)

Chain of hERG current (Q12809 whole entry): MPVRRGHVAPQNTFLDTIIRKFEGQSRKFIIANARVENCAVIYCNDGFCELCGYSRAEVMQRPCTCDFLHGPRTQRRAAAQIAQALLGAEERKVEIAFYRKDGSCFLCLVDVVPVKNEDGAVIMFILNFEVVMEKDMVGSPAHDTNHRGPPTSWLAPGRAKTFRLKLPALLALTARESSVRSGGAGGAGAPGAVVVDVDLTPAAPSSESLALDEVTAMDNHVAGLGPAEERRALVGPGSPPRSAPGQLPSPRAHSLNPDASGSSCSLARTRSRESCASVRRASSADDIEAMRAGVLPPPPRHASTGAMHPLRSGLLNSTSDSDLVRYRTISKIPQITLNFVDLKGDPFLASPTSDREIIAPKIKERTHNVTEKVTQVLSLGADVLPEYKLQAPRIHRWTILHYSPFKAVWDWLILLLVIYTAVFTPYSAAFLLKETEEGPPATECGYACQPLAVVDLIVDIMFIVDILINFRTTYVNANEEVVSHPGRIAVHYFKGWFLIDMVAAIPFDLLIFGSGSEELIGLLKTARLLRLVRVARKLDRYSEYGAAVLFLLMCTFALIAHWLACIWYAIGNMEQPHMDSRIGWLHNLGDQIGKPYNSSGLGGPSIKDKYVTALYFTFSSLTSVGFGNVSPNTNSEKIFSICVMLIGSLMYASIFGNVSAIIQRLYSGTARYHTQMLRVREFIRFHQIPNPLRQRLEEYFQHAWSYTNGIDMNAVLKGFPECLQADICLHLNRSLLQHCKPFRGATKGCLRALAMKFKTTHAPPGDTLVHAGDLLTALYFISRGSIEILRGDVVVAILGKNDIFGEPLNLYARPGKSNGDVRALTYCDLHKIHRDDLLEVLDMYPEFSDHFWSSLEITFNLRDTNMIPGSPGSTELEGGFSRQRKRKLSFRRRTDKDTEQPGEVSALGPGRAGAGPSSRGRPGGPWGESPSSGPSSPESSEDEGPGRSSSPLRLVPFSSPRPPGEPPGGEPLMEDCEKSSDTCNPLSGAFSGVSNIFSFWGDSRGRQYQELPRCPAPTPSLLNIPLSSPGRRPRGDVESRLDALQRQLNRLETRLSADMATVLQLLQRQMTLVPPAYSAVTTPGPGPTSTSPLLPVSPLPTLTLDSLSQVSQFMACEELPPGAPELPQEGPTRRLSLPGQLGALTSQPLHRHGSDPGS
Chain of CYP2C9 (P11712 whole entry): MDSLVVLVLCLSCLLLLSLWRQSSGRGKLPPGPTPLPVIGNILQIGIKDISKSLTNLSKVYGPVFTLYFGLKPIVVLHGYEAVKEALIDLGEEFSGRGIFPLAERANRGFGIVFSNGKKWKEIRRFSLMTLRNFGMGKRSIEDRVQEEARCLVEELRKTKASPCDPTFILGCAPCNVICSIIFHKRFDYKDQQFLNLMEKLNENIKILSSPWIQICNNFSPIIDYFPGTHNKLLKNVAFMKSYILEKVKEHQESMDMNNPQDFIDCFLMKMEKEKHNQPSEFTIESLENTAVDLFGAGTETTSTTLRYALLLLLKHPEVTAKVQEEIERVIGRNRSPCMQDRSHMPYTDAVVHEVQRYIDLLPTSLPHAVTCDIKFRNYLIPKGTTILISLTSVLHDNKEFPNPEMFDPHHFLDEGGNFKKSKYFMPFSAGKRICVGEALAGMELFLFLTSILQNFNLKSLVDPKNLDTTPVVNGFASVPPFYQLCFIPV
Chain of PARP2 (aa2-583) (Q9UGN5 2-583): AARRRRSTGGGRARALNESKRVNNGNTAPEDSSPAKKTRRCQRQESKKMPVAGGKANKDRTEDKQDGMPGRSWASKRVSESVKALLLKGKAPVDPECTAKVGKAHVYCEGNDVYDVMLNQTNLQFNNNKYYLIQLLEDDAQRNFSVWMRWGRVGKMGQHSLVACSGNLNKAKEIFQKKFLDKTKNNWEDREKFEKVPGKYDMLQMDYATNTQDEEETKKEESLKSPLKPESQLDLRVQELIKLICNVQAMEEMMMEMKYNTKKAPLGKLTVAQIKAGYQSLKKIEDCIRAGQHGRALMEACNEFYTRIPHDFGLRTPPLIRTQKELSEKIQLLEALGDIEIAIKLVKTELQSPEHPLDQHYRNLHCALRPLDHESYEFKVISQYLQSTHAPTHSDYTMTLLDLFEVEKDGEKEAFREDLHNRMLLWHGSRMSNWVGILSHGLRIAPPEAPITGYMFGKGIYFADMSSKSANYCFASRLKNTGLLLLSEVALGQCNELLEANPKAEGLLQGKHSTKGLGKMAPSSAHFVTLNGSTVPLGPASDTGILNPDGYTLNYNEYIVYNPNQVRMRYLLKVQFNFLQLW

For `C[C@]12CCCN1CC1=NNC(=O)c3cc(F)cc4[nH]c2c1c34` [Compound A sesqui-hydrate, (R)-2-fluoro-10a-methyl-7,8,9,10,10a,11-hexahydro-5,6,7a,11-tetraazacyclohepta[def]cyclopenta[a]fluoren-4(5H)-one sesqui-hydrate], the hygroscopicity (Hygroscopicity) was “slightly hygroscopic”, the “crystal form and optical purity on storage” value ([1]; 25° C./60% RH and 40° C./75% RH, up to 12 months) was “no crystal form and optical purity changes were observed” and the “Assay w/w, T12” value ([1]; 25° C./60% RH) was 99.0%. For the same compound, the “Assay w/w, T0” value ([1]; 25° C./60% RH) was 99.1%, the “Assay w/w, T12” value ([1]; 40° C./75% RH) was 98.9% and the “Assay w/w, T0” value ([1]; 40° C./75% RH) was 99.0%. The “clinical safety and tolerability” value ([2]; 25 subjects, 2.5-120 mg bid, capsules) was “safe and well tolerated”, the IC50 (PARP2 (aa2-583)) was 0.00092 µM and the “solubility in simulated gastric fluid (SGF)” value (Solubility study; SGF, pH=1.2) was 4.5 mg/mL. For the same compound, the solubility (Solubility study; simulated gastric fluid (SGF), pH 1.2, simulated gastric fluid, SGF, pH=1.2, read-out: solubility in simulated gastric fluid (SGF)) was ~4.5 mg/mL, the solubility in water (Solubility study; water) was 0.04 mg/mL and the solubility (Solubility study; water, read-out: solubility in water) was ~0.04 mg/mL.
In the case of `C[C@]12CCCN1CC1=NNC(=O)c3cc(F)cc4[nH]c2c1c34` [Compound A, (R)-2-fluoro-10a-methyl-7,8,9,10,10a,11-hexahydro-5,6,7a,11-tetraazacyclohepta[def]cyclopenta[a]fluoren-4(5H)-one], the “induction of human CYP2B6” value (human CYP2B6) is reported as “not an inducer”, the rate of metabolism [3] is reported as “slowly” and the brain penetration (Brain penetration) is reported as “significant brain penetration”. The “organ drug concentration as % of the peak concentration” value [4] was “less than 10%”, the EC50 (MDA-MB-231 cells; Homo sapiens, MDA-MB-231, 168 h, read-out: EC50 for growth inhibition, MDA-MB-231) was ~9 µM and the EC50 (MDA-MB-231 cells; Homo sapiens, MDA-MB-231, 168 h, read-out: EC50 for growth inhibition, MDA-MB-231 (Table 20)) was ~9 µM. The IC50 (CYP2C9) was 6.48 µM, the “excreted in urine and bile” value [5] was “Less than 1%” and the “induction of human CYP1A2” value (human CYP1A2) was “not an inducer”. The fraction unbound [6] was 0.21, the rate of metabolism [7] was “slowly” and the IC50 (other CYP isozymes) was > 10 µM. The rate of metabolism [8] was “slowly”, the rate of metabolism [9] was “slowly” and the “inhibition of PARylation” value (PARP) was “Potent inhibition of PARylation”. The fraction unbound [10] was 0.043, the tumor regression [11] was “significantly induces tumor regression” and the clinical response ([2]; BRCA1/2 mutant ovary cancer patients) was “partial or complete responses”. The “Plasma protein binding (PPB)” value (rat plasma protein) was 84.9%, the animal survival [12] was “significantly prolonged animal survival” and the rate of metabolism [13] was “quickly”. The mutagenicity (Ames assay) was “No mutagenicity”, the fraction unbound [14] was 0.15 and the “induction of human CYP3A” value (human CYP3A) was “not an inducer”. For the same compound, the fraction unbound [15] was 0.111, the character of toxicity ([16]; 28-day recovery phase) was “dose dependent, correlated with systemic exposure and reversible” and the “major target organ of toxicity” value ([16]; up to 28 days) was “bone marrow”. The “accumulation following multiple oral dosing” value (Pharmacokinetics in dog) was “no accumulation”, the clearance (Pharmacokinetics in dog; in vivo, dogs) was 1.1 to 1.11 L/h/kg and the half-life (Pharmacokinetics in dog; in vivo, dogs, oral administration, read-out: Elimination half-lives) was 1.5 to 2.5 h. For the same compound, the Vd (Pharmacokinetics in dog; in vivo, dogs, read-out: Steady state volume of distribution) was 1.9 L/kg, the bioavailability (Pharmacokinetics in dog; in vivo, po) was > 40% and the IC50 (hERG current) was 26 µM. For the same compound, the “sensitivity of MDA-MB-436 cells” value ([17]; BRCA1-deficient) was “profoundly sensitive”, the EC50 ([17]; Homo sapiens, MDA-MB-436, 168 h) was 0.041 ± 0.015 µM and the “CYP isoform responsible for metabolism” value (CYP3A, CYP2C8) was “CYP3A was the major CYP isoform”. The “accumulation following multiple oral dosing” value (Pharmacokinetics in rat) was “no accumulation”, the bioavailability (Pharmacokinetics in rat; in vivo, po) was > 40% and the clearance (Pharmacokinetics in rat; in vivo, rats) was 0.52 to 0.912 L/h/kg. For the same compound, the half-life (Pharmacokinetics in rat; in vivo, rats, oral administration, read-out: Elimination half-lives) was 3.1 to 5 h and the Vd (Pharmacokinetics in rat; in vivo, rats, read-out: Steady state volume of distribution) was 2.4 L/kg.
`O=C(c1cc(Cc2n[nH]c(=O)c3ccccc23)ccc1F)N1CCN(C(=O)C2CC2)CC1` [Olaparib, olaparib, reference compound] gave an EC50 (MDA-MB-231 cells; [19]) of ~5 µM and an EC50 [17] of 0.021 ± 0.007 µM.
With `C[C@]1(c2nc3c(C(N)=O)cccc3[nH]2)CCCN1` [Veliparib, veliparib, reference compound] the EC50 (MDA-MB-231 cells; [19]) was > 10 µM, the EC50 [17] was 0.82 ± 0.3 µM and the IC50 [18] was 2.66 nM.
